{"source": "paper PMC10954600", "about": "“A novel laccase from Trametes polyzona with high performance in the decolorization of textile dyes” (AMB Express, 2024)", "tested_on": "TP-Lac2", "settings": "25 mM tartrate buffer, pH 3.5, 50 °C; 0.05-1.5 mM ABTS", "data": [{"smiles": "CCn1c(=NN=c2sc3cc(S(=O)(=O)O)ccc3n2CC)sc2cc(S(=O)(=O)O)ccc21", "note": "[ABTS]", "values": [{"measurement": "Km", "value": "250 ± 40", "unit": "µM"}]}]}
